Where two headings read alike, the source gives them in different places.
How the values were obtained:
SK-MEL-28 = experiment: NCI in-vitro testing, SK-MEL-28 (Melanoma)
SN12C = experiment: NCI in-vitro testing, SN12C (Renal Cancer)
U251 = experiment: NCI in-vitro testing, U251 (CNS Cancer)
H460 cells = experiment: cells; conditions: Homo sapiens
Ovcar443 = experiment: Cell viability, Ovcar443 ovary cancer cells; format: cell-based
A498 = experiment: NCI in-vitro testing, A498 (Renal Cancer)
BT-549 = experiment: NCI in-vitro testing, BT-549 (Breast Cancer)
TK-10 = experiment: NCI in-vitro testing, TK-10 (Renal Cancer)
T-47D = experiment: NCI in-vitro testing, T-47D (Breast Cancer)
Hey = experiment: Cell viability, Hey ovary cancer cells; format: cell-based
HT29 = experiment: NCI in-vitro testing, HT29 (Colon Cancer)
COLO 205 = experiment: NCI in-vitro testing, COLO 205 (Colon Cancer)
SF-295 = experiment: NCI in-vitro testing, SF-295 (CNS Cancer)
NCI-H460 = experiment: NCI in-vitro testing, NCI-H460 (Non-Small Cell Lung Cancer)
OVCAR-4 = experiment: NCI in-vitro testing, OVCAR-4 (Ovarian Cancer)
EKVX = experiment: NCI in-vitro testing, EKVX (Non-Small Cell Lung Cancer)
[1] = Homo sapiens, read-out: Log10 GI50 (converted)

SMILES: OCc1cn(Cc2ccc(Cl)cc2)c2ccccc12 [Oncrasin K060, 1H-Indole-3-methanol, 1-[(4-chlorophenyl)methyl]-]
- GI50 (SK-MEL-28; Homo sapiens, SK-MEL-28): 18000 nM
- CC50 (SK-MEL-28; Homo sapiens, SK-MEL-28, read-out: LC50): > 100000 nM
- GI50 (SK-MEL-28; Homo sapiens, SK-MEL-28, read-out: Log10 GI50 (converted)): 17800 nM
- TGI (SK-MEL-28; SK-MEL-28): 4.44E−5 Molar
- Percent Growth (SK-MEL-28; SK-MEL-28, Log10 Concentration −4.0 Molar): −15%
- Percent Growth (SK-MEL-28; SK-MEL-28, Log10 Concentration −5.0 Molar): 82%
- Percent Growth (SK-MEL-28; SK-MEL-28, Log10 Concentration −6.0 Molar): 93%
- Percent Growth (SK-MEL-28; SK-MEL-28, Log10 Concentration −7.0 Molar): 99%
- Percent Growth (SK-MEL-28; SK-MEL-28, Log10 Concentration −8.0 Molar): 93%
- TGI (SN12C): 1.94E−5 Molar
- GI50 (SN12C; Homo sapiens): 3560 nM
- CC50 (SN12C; Homo sapiens, read-out: LC50): 87200 nM
- GI50 (SN12C; [1]): 3550 nM
- Percent Growth (SN12C; Log10 Concentration −4.0 Molar): −68%
- Percent Growth (SN12C; Log10 Concentration −5.0 Molar): 27%
- Percent Growth (SN12C; Log10 Concentration −6.0 Molar): 78%
- Percent Growth (SN12C; Log10 Concentration −7.0 Molar): 93%
- Percent Growth (SN12C; Log10 Concentration −8.0 Molar): 97%
- GI50 (U251; Homo sapiens, U-251): 2460 nM
- CC50 (U251; Homo sapiens, U-251, read-out: LC50): > 100000 nM
- GI50 (U251; Homo sapiens, U-251, read-out: Log10 GI50 (converted)): 2450 nM
- TGI (U251; U251): 2.63E−5 Molar
- Percent Growth (U251; U251, Log10 Concentration −4.0 Molar): −35%
- Percent Growth (U251; U251, Log10 Concentration −5.0 Molar): 25%
- Percent Growth (U251; U251, Log10 Concentration −6.0 Molar): 55%
- Percent Growth (U251; U251, Log10 Concentration −7.0 Molar): 84%
- Percent Growth (U251; U251, Log10 Concentration −8.0 Molar): 93%
- IC50 (H460 cells; NCI-H460, read-out: IC50 (−LogM), H460, Lung (converted)): 15.8 nM
- IC50 (H460 cells; NCI-H460, read-out: IC50 in H460 cells, Table 1): 15.8 nM
- IC50 (Ovcar443): 2510 nM
- TGI (A498; A498): 3.33E−8 Molar
- Percent Growth (A498; A498, Log10 Concentration −4.0 Molar): −94%
- Percent Growth (A498; A498, Log10 Concentration −5.0 Molar): −95%
- Percent Growth (A498; A498, Log10 Concentration −6.0 Molar): −87%
- Percent Growth (A498; A498, Log10 Concentration −7.0 Molar): −56%
- Percent Growth (A498; A498, Log10 Concentration −8.0 Molar): 61%
- GI50 (A498; Homo sapiens, A498): 12.4 nM
- CC50 (A498; Homo sapiens, A498, read-out: LC50): 89 nM
- GI50 (A498; Homo sapiens, A498, read-out: Log10 GI50 (converted)): 12.3 nM
- TGI (BT-549; BT-549): 1.73E−5 Molar
- Percent Growth (BT-549; BT-549, Log10 Concentration −4.0 Molar): −85%
- Percent Growth (BT-549; BT-549, Log10 Concentration −5.0 Molar): 26%
- Percent Growth (BT-549; BT-549, Log10 Concentration −6.0 Molar): 97%
- Percent Growth (BT-549; BT-549, Log10 Concentration −7.0 Molar): 118%
- Percent Growth (BT-549; BT-549, Log10 Concentration −8.0 Molar): 110%
- GI50 (BT-549; Homo sapiens, BT-549): 4620 nM
- CC50 (BT-549; Homo sapiens, BT-549, read-out: LC50): 4880 nM
- GI50 (BT-549; Homo sapiens, BT-549, read-out: Log10 GI50 (converted)): 4570 nM
- GI50 (TK-10; Homo sapiens, TK-10): 15.3 nM
- CC50 (TK-10; Homo sapiens, TK-10, read-out: LC50): > 100000 nM
- GI50 (TK-10; Homo sapiens, TK-10, read-out: Log10 GI50 (converted)): 15.1 nM
- TGI (TK-10; TK-10): 8.94E−8 Molar
- Percent Growth (TK-10; TK-10, Log10 Concentration −4.0 Molar): −18%
- Percent Growth (TK-10; TK-10, Log10 Concentration −5.0 Molar): −8%
- Percent Growth (TK-10; TK-10, Log10 Concentration −6.0 Molar): −10%
- Percent Growth (TK-10; TK-10, Log10 Concentration −7.0 Molar): −3%
- Percent Growth (TK-10; TK-10, Log10 Concentration −8.0 Molar): 82%
- GI50 (T-47D; Homo sapiens, T47D): 26.7 nM
- CC50 (T-47D; Homo sapiens, T47D, read-out: LC50): > 100000 nM
- GI50 (T-47D; Homo sapiens, T47D, read-out: Log10 GI50 (converted)): 26.9 nM
- TGI (T-47D; T-47D): 4.23E−7 Molar
- Percent Growth (T-47D; T-47D, Log10 Concentration −4.0 Molar): −14%
- Percent Growth (T-47D; T-47D, Log10 Concentration −5.0 Molar): −16%
- Percent Growth (T-47D; T-47D, Log10 Concentration −6.0 Molar): −12%
- Percent Growth (T-47D; T-47D, Log10 Concentration −7.0 Molar): 20%
- Percent Growth (T-47D; T-47D, Log10 Concentration −8.0 Molar): 73%
- IC50 (Hey): 10000 nM
- TGI (HT29; HT20): 2.01E−6 Molar
- Percent Growth (HT29; HT20, Log10 Concentration −4.0 (Molar)): −66%
- Percent Growth (HT29; HT20, Log10 Concentration −5.0 (Molar)): 29%
- Percent Growth (HT29; HT20, Log10 Concentration −6.0 (Molar)): 68%
- Percent Growth (HT29; HT20, Log10 Concentration −7.0 (Molar)): 79%
- Percent Growth (HT29; HT20, Log10 Concentration −8.0 (Molar)): 103%
- GI50 (HT29; Homo sapiens): 1830 nM
- GI50 (HT29; Homo sapiens, HT-29, read-out: Log10 GI50 (converted)): 1820 nM
- CC50 (HT29; Homo sapiens, read-out: LC50): 67600 nM
- TGI (COLO 205; COLO 205): 1.58E−5 Molar
- Percent Growth (COLO 205; COLO 205, Log10 Concentration −4.0 Molar): −72%
- Percent Growth (COLO 205; COLO 205, Log10 Concentration −5.0 Molar): 18%
- Percent Growth (COLO 205; COLO 205, Log10 Concentration −6.0 Molar): 61%
- Percent Growth (COLO 205; COLO 205, Log10 Concentration −7.0 Molar): 93%
- Percent Growth (COLO 205; COLO 205, Log10 Concentration −8.0 Molar): 98%
- GI50 (COLO 205; Homo sapiens, COLO 205): 1050 nM
- CC50 (COLO 205; Homo sapiens, COLO 205, read-out: LC50): 56900 nM
- GI50 (COLO 205; Homo sapiens, COLO 205, read-out: Log10 GI50 (converted)): 1050 nM
- GI50 (SF-295; Homo sapiens, SF-295): 14300 nM
- CC50 (SF-295; Homo sapiens, SF-295, read-out: LC50): > 100000 nM
- GI50 (SF-295; Homo sapiens, SF-295, read-out: Log10 GI50 (converted)): 1410 nM
- TGI (SF-295; SF-295): 3.52E−5 Molar
- Percent Growth (SF-295; SF-295, Log10 Concentration −4.0 Molar): −15%
- Percent Growth (SF-295; SF-295, Log10 Concentration −5.0 Molar): 18%
- Percent Growth (SF-295; SF-295, Log10 Concentration −6.0 Molar): 56%
- Percent Growth (SF-295; SF-295, Log10 Concentration −7.0 Molar): 80%
- Percent Growth (SF-295; SF-295, Log10 Concentration −8.0 Molar): 104%
- TGI (NCI-H460): 3.79E−5 Molar
- GI50 (NCI-H460; Homo sapiens, NCI-H460): 88.8 nM
- CC50 (NCI-H460; Homo sapiens, NCI-H460, read-out: LC50): > 100000 nM
- GI50 (NCI-H460; Homo sapiens, NCI-H460, read-out: Log10 GI50 (converted)): 89.1 nM
- Percent Growth (NCI-H460; Log10 Concentration −4.0 Molar): −9%
- Percent Growth (NCI-H460; Log10 Concentration −5.0 Molar): 13%
- Percent Growth (NCI-H460; Log10 Concentration −6.0 Molar): 20%
- Percent Growth (NCI-H460; Log10 Concentration −7.0 Molar): 48%
- Percent Growth (NCI-H460; Log10 Concentration −8.0 Molar): 79%
- GI50 (OVCAR-4; Homo sapiens, OVCAR-4): 340 nM
- CC50 (OVCAR-4; Homo sapiens, OVCAR-4, read-out: LC50): > 100000 nM
- GI50 (OVCAR-4; Homo sapiens, OVCAR-4, read-out: Log10 GI50 (converted)): 339 nM
- TGI (OVCAR-4; OVCAR-4): 1.80E−5 Molar
- Percent Growth (OVCAR-4; OVCAR-4, Log10 Concentration −4.0 Molar): −29%
- Percent Growth (OVCAR-4; OVCAR-4, Log10 Concentration −5.0 Molar): 10%
- Percent Growth (OVCAR-4; OVCAR-4, Log10 Concentration −6.0 Molar): 31%
- Percent Growth (OVCAR-4; OVCAR-4, Log10 Concentration −7.0 Molar): 71%
- Percent Growth (OVCAR-4; OVCAR-4, Log10 Concentration −8.0 Molar): 94%
- TGI (EKVX): 6.47E−5 Molar
- GI50 (EKVX; Homo sapiens): 24000 nM
- CC50 (EKVX; Homo sapiens, read-out: LC50): > 100000 nM
- GI50 (EKVX; [1]): 24000 nM
- Percent Growth (EKVX; Log10 Concentration −4.0 Molar): −22%
- Percent Growth (EKVX; Log10 Concentration −5.0 Molar): 94%
- Percent Growth (EKVX; Log10 Concentration −6.0 Molar): 107%
- Percent Growth (EKVX; Log10 Concentration −7.0 Molar): 105%
- Percent Growth (EKVX; Log10 Concentration −8.0 Molar): 103%

Source: patent US8883841B2, “Oncogenic ras-specific cytotoxic compound and methods of use thereof” (The Board of Regents of the University of Texas System, priority 2005, dated 2014)
